# From a melting point compilation (Tetko et al.; mined from patent text by program, amines drawn as free bases though some values may be those of a salt)
row,Structure (SMILES),melting point [°C]
1,CCc1cccc2c(/C=C(\C)C(=O)O)cc(OC)c(OC(C)=O)c12,148 to 150
2,c1ccc2c(Sc3c4ccccc4cc4ccccc34)c3ccccc3cc2c1,257
3,COc1ccc(N)c(SSc2cc(OC)ccc2N)c1,78 to 80
4,O=C(/C=C/C=C/c1ccccc1)NCCCOc1ccc(CC(=O)NO)cc1,198 to 201
5,CC(=O)SCC(Cc1ccc(C)cc1)C(=O)Nc1cccc(C(=O)O)c1 (stereo not drawn),174 to 175
6,O=C(O)Cc1nn(Cc2nc3cccc(Cl)c3s2)c(=O)c2ccccc12,168
7,COc1cc(-c2nc3ccc(OCCN4CCN(C)CC4)cc3n2Cc2ccccc2)cc(OC)c1OC,113
8,CSC(SC)=C(C#N)C(=O)N(C)C,45 to 46
9,COCCOC(=O)C1=C(C)Nc2nccn2C1c1ccccc1C(F)(F)F (stereo not drawn),181 to 182
10,NS(=O)(=O)Oc1ccc(C(=O)c2ccccc2)cc1,131 to 133
11,O=C(Nc1ccc(-n2nc(C(F)(F)F)cc2C(F)(F)F)cc1)c1ccc(I)cc1,196 to 198
12,O=C1C(c2cc3c(cc2O)OCC3)c2cc(F)ccc2N1C(c1ccccc1)c1ccccc1 (stereo not drawn),179 to 181
13,Clc1ccc([C@H]2C[C@@H]3CC[C@@H]4[C@H]2C(=NOCc2ccccc2)CN34)cc1Cl,72 to 74
14,COc1ccc(CSc2ccc([N+](=O)[O-])cc2CNCCc2ccccc2)cc1,80 to 85
15,Cn1c2cc(Cl)cc(Cl)c2c2cc(C(=O)N3CCOCC3)sc21,224 to 226
16,C=C(C)n1c(=O)n(CCN2CCC(N(C)C(=O)c3ccccc3)CC2)c2ccccc21,120 to 122
17,O=C(c1n[nH]c2c(=O)[nH]c3cc(Cl)ccc3c(=O)c12)N1CCOCC1,347
18,Cc1c(C)c(S(=O)(=O)C[N+](=O)[O-])c(C)c2c1OCCC2,104 to 106
19,Nc1nc(N)c2ncn(C3OC(COCc4ccccc4)C(OCc4ccccc4)C3OCc3ccccc3)c2n1 (stereo not drawn),158 to 159
20,Cc1cc2c(=O)c(Cc3cccnc3)cn3c4ccc(Br)cc4c(c1)c23,202 to 204
21,Brc1cc(Br)cc(Cc2cccnc2)c1,70 to 72
22,Nc1ncnc2c1c(-c1ccccc1)cn2-c1cccc(C(=O)NCCO)c1,194 to 198
23,CC(C)(C)C(=O)C(Br)C(c1ccc(Cl)cc1Cl)S(=O)(=O)c1ccc(Cl)cc1 (stereo not drawn),184 to 185
24,COc1ccc(C(C)C)cc1-c1cc(-c2nnnn2C2CCN(C(=O)OC(C)(C)C)C2)c(O)cc1O (stereo not drawn),100 to 104

row,Structure (SMILES),melting point [°C]
1,Nc1ncnc2c1nc(OC(=O)OCc1ccccc1)n2Cc1ccccc1,> 300
2,CC1CC(c2cc3c(C(F)(F)F)cccc3s2)CCN1 (stereo not drawn),106 to 108
3,CCOC(=O)c1cc2n(C)c3ccccc3c(=O)n2n1,239 to 241
4,O=C(O)Cc1c(C(=O)c2cc(C(=O)O)no2)[nH]c2ccc(Cl)cc12,200 to 205
5,COC(=O)/C=C/c1ccc(CCC(C)NCC(O)c2cccc(Cl)c2)cc1 (stereo not drawn),87 to 89
6,CNc1nc(C)nc(N2CCCC(C)C2)n1 (stereo not drawn),155 to 156
7,COc1cccc(Cn2cnc3c(Br)c(NC4=NCCN4)ccc32)c1,177 to 178
8,CCCCNc1nc(C)c(C(=O)c2ccc(N)c(N)c2)s1,127 to 130
9,CCNc1ccc2nc(Cl)c(S(N)(=O)=O)n2n1,218 to 220
10,CCCCCCCCCCCCCCCC(=O)SC1CCN(C(C(=O)OC)c2ccccc2F)CC1 (stereo not drawn),44 to 47
11,CC(=O)Nc1ccc(OS(N)(=O)=O)cc1,180 to 181
12,Cc1ccc(CNCCOc2cccc3[nH]c(=O)[nH]c23)cc1,162 to 163
13,CCCCc1nc(C2CCCCC2)n(Cc2ccc(-c3ccccc3-c3ncn[nH]3)cc2)n1,158 to 160
14,Cc1c(NC(=O)c2ccc(-c3ccc(F)cc3)cc2)ccc2cc(CN3CCCC3Cc3ccccc3)cnc12 (stereo not drawn),172 to 174
15,COc1cc(S(C)(=O)=O)c(F)cc1OCCCl,85 to 87
16,CN1C[C@H](O)C[C@H]1CCOc1ccc(Cl)cc1CCc1ccccc1,65 to 68
17,CNC(=O)CNC(=O)c1ccc(C)c(-n2c(C)cc(OCc3ccccc3CNC(=O)Nc3cc(C(C)(C)C)nn3-c3ccc(Cl)c(O)c3)c(Cl)c2=O)c1,179 to 181
18,COC(=O)C(Cc1ccc(OCc2ccccc2)cc1)NC(=O)c1cc2ccc(-c3ccc(Cl)cc3)cc2s1 (stereo not drawn),200 to 201
19,CCC(SC(C)=O)C(=O)NC(C)=O (stereo not drawn),59 to 60
20,CO[C@H](C(=O)O)c1cccc([N+](=O)[O-])c1,112
21,COc1ccc(C(=O)N2CCN(Cc3ccccc3)c3ccccc32)cc1OC,111 to 112
22,O=C(O)c1cc(=O)cc(C=Cc2ccc(O)cc2)o1,256
23,O=C1c2ccccc2C(=O)N1c1ncc(C(Cl)Cl)nc1CO,188 to 189
24,O=C(CO)Nc1ccc(O)cc1,141 to 143
